Legend:
physchem = assay type: physicochemical; conditions: pH 7.4
Protocol: The layers were separated by centrifugation at 2,000 rpm (416g) for 5 min. Aliquots of 100 μL were removed from each phase and measured in a Wizard γ-counter (PerkinElmer). Calculated logD7.4 values were expressed as the mean ± SD from 3 experiments.

NTR1 = biological target: T1, NTR1 (Homo sapiens, UniProt P30989); test: Competitive receptor binding assay in NTR1-positive PC3 cells; conditions: 37 kBq tracer, NT 10^-8–10^2 μM as competitive inhibitor, 60 min, 37°C, γ-counter, mean ± SD, read-out: half-maximal inhibitory concentration
T1 construct: endogenous in cells; host or cells: PC3 human prostate adenocarcinoma cells
Protocol: After incubation for 60 min at 37°C, the medium of each well was removed and the cells were washed twice with PBS. The removed medium and washing PBS were collected to represent the amount of free radioligand. The adherent cells were lysed with NaOH (0.1 M, 200 μL) and harvested after being washed twice by PBS. Finally, the cell-bound radioactivity (3 × 10^5 cells/mL) and the amount of free radioligand were measured in a γ-counter. The half-maximal inhibitory concentration was calculated using GraphPad Prism software. […] The radioactivity of adherent cells (3 × 10^5 cells/mL) was then measured after they were extracted with NaOH (0.1 M, 200 μL) and washed twice with PBS.

in vivo [1] = test: in vivo; design: species or system mice; conditions: mouse, iv, 3.4 MBq, total radioactivity, Biodistribution
Protocol: Blood and major organs were harvested immediately, weighed, and counted using a γ-counter. The radioactivity of each sample was calculated as the percentage of injected dose per gram of tissue (%ID/g) and corrected for radioactive decay.

PC3-xenografted mice [2] = conditions: mouse, in vivo
Protocol: (§1) Images were reconstructed using 3-dimensional ordered-subset expectation maximization with attenuation correction. Regions of interest were drawn over the tumors and main organs, and average signal levels in the regions were measured using an Inveon Research Workplace workstation.

in vivo [3] = conditions: mouse, iv, 7.4 MBq, total radioactivity
Protocol: as §1

PC3-xenografted mice [4] = test: Small-animal PET/CT imaging, PC3 xenografts; conditions: PC3 xenograft, 7.4 MBq i.v., 1 h after injection, mean ± SD
Protocol: as §1

LNCap-xenografted mice = test: Small-animal PET/CT imaging, LNCap xenografts; conditions: LNCap xenograft, 7.4 MBq i.v., 1 h after injection, mean ± SD
Protocol: as §1

T1 sequence (P30989 whole entry): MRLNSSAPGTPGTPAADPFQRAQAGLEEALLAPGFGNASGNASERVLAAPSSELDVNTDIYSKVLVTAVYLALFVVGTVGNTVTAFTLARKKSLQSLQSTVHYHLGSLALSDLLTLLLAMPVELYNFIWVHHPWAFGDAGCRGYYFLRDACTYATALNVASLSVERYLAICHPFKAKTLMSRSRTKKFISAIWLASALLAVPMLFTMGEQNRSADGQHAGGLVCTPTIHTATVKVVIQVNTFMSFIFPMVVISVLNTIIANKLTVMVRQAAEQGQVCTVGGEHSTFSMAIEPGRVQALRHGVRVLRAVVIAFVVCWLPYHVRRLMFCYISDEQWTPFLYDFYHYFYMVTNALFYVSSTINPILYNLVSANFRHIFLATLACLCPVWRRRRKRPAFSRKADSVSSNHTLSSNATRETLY

CC(=O)NC(CCCCNC(=O)CN1CCN(CC(=O)O)CCN(CC(=O)O)CCN(CC(=O)O)CC1)C(=O)N1CCCC1C(=O)N(C)C(CCCNC(=N)N)C(=O)NC(CCCNC(=N)N)C(=O)N1CCCC1C(=O)NC(Cc1ccc(O)cc1)C(=O)NC(C(=O)NC(CC(C)C)C(=O)O)C(C)(C)C (centres unmarked) [^68Ga-DOTA-NT-20.3, metal not drawn]
logD (physchem): -3.68 ± 0.14 | IC50 (NTR1): 7.59 ± 0.41 nM | tissue uptake at 5 min (in vivo [1]; Blood): 8.11 ± 1.54 %ID/g | tissue uptake at 0.25 h (in vivo [1]; Blood): 4.15 ± 0.59 %ID/g | tissue uptake at 0.5 h (in vivo [1]; Blood): 2.56 ± 0.23 %ID/g | tissue uptake at 1 h (in vivo [1]; Blood): 1.12 ± 0.22 %ID/g | tissue uptake at 2 h (in vivo [1]; Blood): 0.43 ± 0.08 %ID/g | tissue uptake at 5 min (in vivo [1]; Bone): 2.27 ± 0.29 %ID/g | tissue uptake at 0.25 h (in vivo [1]; Bone): 2.35 ± 0.52 %ID/g | tissue uptake at 0.5 h (in vivo [1]; Bone): 1.27 ± 0.08 %ID/g | tissue uptake at 1 h (in vivo [1]; Bone): 0.86 ± 0.17 %ID/g | tissue uptake at 2 h (in vivo [1]; Bone): 0.53 ± 0.17 %ID/g | tissue uptake at 5 min (in vivo [1]; Brain): 1.91 ± 0.39 %ID/g | tissue uptake at 0.25 h (in vivo [1]; Brain): 1.35 ± 0.15 %ID/g | tissue uptake at 0.5 h (in vivo [1]; Brain): 0.88 ± 0.1 %ID/g | tissue uptake at 1 h (in vivo [1]; Brain): 0.6 ± 0.05 %ID/g | tissue uptake at 2 h (in vivo [1]; Brain): 0.33 ± 0.1 %ID/g | tissue uptake at 5 min (in vivo [1]; Fat): 1.42 ± 0.23 %ID/g | tissue uptake at 0.25 h (in vivo [1]; Fat): 1.11 ± 0.23 %ID/g | tissue uptake at 0.5 h (in vivo [1]; Fat): 0.62 ± 0.11 %ID/g | tissue uptake at 1 h (in vivo [1]; Fat): 0.32 ± 0.03 %ID/g | tissue uptake at 2 h (in vivo [1]; Fat): 0.32 ± 0.07 %ID/g | tissue uptake at 5 min (in vivo [1]; Heart): 7.7 ± 0.9 %ID/g | tissue uptake at 0.25 h (in vivo [1]; Heart): 3.88 ± 0.18 %ID/g | tissue uptake at 0.5 h (in vivo [1]; Heart): 2.78 ± 0.36 %ID/g | tissue uptake at 1 h (in vivo [1]; Heart): 1.57 ± 0.18 %ID/g | tissue uptake at 2 h (in vivo [1]; Heart): 0.58 ± 0.11 %ID/g | tissue uptake at 5 min (in vivo [1]; Intestine): 3.28 ± 0.3 %ID/g | tissue uptake at 0.25 h (in vivo [1]; Intestine): 2.31 ± 0.92 %ID/g | tissue uptake at 0.5 h (in vivo [1]; Intestine): 1.47 ± 0.26 %ID/g | tissue uptake at 1 h (in vivo [1]; Intestine): 0.77 ± 0.24 %ID/g | tissue uptake at 2 h (in vivo [1]; Intestine): 0.38 ± 0.04 %ID/g | tissue uptake at 5 min (in vivo [1]; Kidney): 18.4 ± 1.27 %ID/g | tissue uptake at 0.25 h (in vivo [1]; Kidney): 21.2 ± 1.95 %ID/g | tissue uptake at 0.5 h (in vivo [1]; Kidney): 23.1 ± 1.94 %ID/g | tissue uptake at 1 h (in vivo [1]; Kidney): 24.6 ± 0.98 %ID/g | tissue uptake at 2 h (in vivo [1]; Kidney): 26.1 ± 0.79 %ID/g | tissue uptake at 5 min (in vivo [1]; Liver): 5.46 ± 1.01 %ID/g | tissue uptake at 0.25 h (in vivo [1]; Liver): 3.17 ± 0.45 %ID/g | tissue uptake at 0.5 h (in vivo [1]; Liver): 2.02 ± 0.48 %ID/g | tissue uptake at 1 h (in vivo [1]; Liver): 1.44 ± 0.2 %ID/g | tissue uptake at 2 h (in vivo [1]; Liver): 0.86 ± 0.49 %ID/g | tissue uptake at 5 min (in vivo [1]; Lung): 5.18 ± 0.16 %ID/g | tissue uptake at 0.25 h (in vivo [1]; Lung): 3.28 ± 0.62 %ID/g | tissue uptake at 0.5 h (in vivo [1]; Lung): 1.91 ± 0.15 %ID/g | tissue uptake at 1 h (in vivo [1]; Lung): 1.2 ± 0.23 %ID/g | tissue uptake at 2 h (in vivo [1]; Lung): 0.75 ± 0.15 %ID/g | tissue uptake at 5 min (in vivo [1]; Muscle): 1.93 ± 0.65 %ID/g | tissue uptake at 0.25 h (in vivo [1]; Muscle): 1.44 ± 0.17 %ID/g | tissue uptake at 0.5 h (in vivo [1]; Muscle): 0.96 ± 0.08 %ID/g | tissue uptake at 1 h (in vivo [1]; Muscle): 0.51 ± 0.02 %ID/g | tissue uptake at 2 h (in vivo [1]; Muscle): 0.32 ± 0.04 %ID/g | tissue uptake at 5 min (in vivo [1]; Pancreas): 2.88 ± 0.61 %ID/g | tissue uptake at 0.25 h (in vivo [1]; Pancreas): 2.03 ± 0.26 %ID/g | tissue uptake at 0.5 h (in vivo [1]; Pancreas): 1.59 ± 0.6 %ID/g | tissue uptake at 1 h (in vivo [1]; Pancreas): 1.05 ± 0.07 %ID/g | tissue uptake at 2 h (in vivo [1]; Pancreas): 0.36 ± 0.04 %ID/g | tissue uptake at 5 min (in vivo [1]; Spleen): 3.97 ± 0.39 %ID/g | tissue uptake at 0.25 h (in vivo [1]; Spleen): 2.81 ± 0.47 %ID/g | tissue uptake at 0.5 h (in vivo [1]; Spleen): 1.85 ± 0.43 %ID/g | tissue uptake at 1 h (in vivo [1]; Spleen): 1.06 ± 0.27 %ID/g | tissue uptake at 2 h (in vivo [1]; Spleen): 0.41 ± 0.04 %ID/g | tissue uptake at 5 min (in vivo [1]; Stomach): 3.56 ± 0.31 %ID/g | tissue uptake at 0.25 h (in vivo [1]; Stomach): 2.49 ± 0.35 %ID/g | tissue uptake at 0.5 h (in vivo [1]; Stomach): 1.75 ± 0.38 %ID/g | tissue uptake at 1 h (in vivo [1]; Stomach): 0.91 ± 0.18 %ID/g | tissue uptake at 5 min (in vivo [1]; Testis): 1.62 ± 0.11 %ID/g | tissue uptake at 0.25 h (in vivo [1]; Testis): 1.31 ± 0.05 %ID/g | tissue uptake at 0.5 h (in vivo [1]; Testis): 0.8 ± 0.06 %ID/g | tissue uptake at 1 h (in vivo [1]; Testis): 0.42 ± 0.04 %ID/g | tissue uptake at 2 h (in vivo [1]; Testis): 0.31 ± 0.1 %ID/g | tissue uptake at 5 min (in vivo [1]; Tumor): 2.81 ± 0.39 %ID/g | tissue uptake at 0.25 h (in vivo [1]; Tumor): 3.93 ± 0.43 %ID/g | tissue uptake at 0.5 h (in vivo [1]; Tumor): 5.7 ± 0.8 %ID/g | tissue uptake at 1 h (in vivo [1]; Tumor): 6.26 ± 0.41 %ID/g | tissue uptake at 2 h (in vivo [1]; Tumor): 3.74 ± 0.56 %ID/g | tumor retention time (PC3-xenografted mice [2]): up to 4 h | tissue uptake at 0.5 h (in vivo [3]): 4.53 ± 1.26 %ID/g

O=C([O-])CN(CCN(CC(=O)[O-])Cc1cc(CCC(=O)NCCCCCC(=O)NCCCC[C@H](NC(=O)N[C@@H](CCC(=O)O)C(=O)O)C(=O)O)ccc1[O-])Cc1cc(CCC(=O)O)ccc1[O-].[68Ga+3].[OH3+] [^68Ga-PSMA-11]
tumor uptake (PET region of interest) (PC3-xenografted mice [4]): 0.53 ± 0.05 %ID/g | tumor uptake (PET region of interest) (LNCap-xenografted mice): 8.60 ± 2.11 %ID/g
